Experimental data taken from patent publication US20050020593A1, “Aryl-heteroaromatic compounds, compositions comprising them and use” (Aventis Pharma, priority 2003, published 2005).

Key:
[1] = molecular target: T1, Tubulin (Sus scrofa, UniProt P02550+P02554); experiment: Assessment of the inhibition of tubulin polymerization (turbidimetry at 350 nm); assay type: biochemical; conditions: tubulin purified from pig brains, 10 μM; concentration inhibiting the rate of polymerization by 50%
T1 construct: Tubulin is purified from pig brains according to published methods; from tissue; host or cells: pig brain
T1 sequence (P02550 whole entry): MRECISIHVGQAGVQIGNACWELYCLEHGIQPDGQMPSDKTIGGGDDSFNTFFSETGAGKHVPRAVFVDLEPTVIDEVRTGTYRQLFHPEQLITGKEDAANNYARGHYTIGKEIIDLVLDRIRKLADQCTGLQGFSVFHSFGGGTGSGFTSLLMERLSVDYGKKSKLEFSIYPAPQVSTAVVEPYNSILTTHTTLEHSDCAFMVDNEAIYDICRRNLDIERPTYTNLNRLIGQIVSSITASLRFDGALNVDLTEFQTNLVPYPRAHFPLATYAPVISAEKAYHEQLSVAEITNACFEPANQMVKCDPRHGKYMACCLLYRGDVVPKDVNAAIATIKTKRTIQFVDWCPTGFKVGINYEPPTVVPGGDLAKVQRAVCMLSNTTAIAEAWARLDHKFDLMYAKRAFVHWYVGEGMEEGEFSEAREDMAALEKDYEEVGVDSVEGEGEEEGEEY
T1 sequence (P02554 whole entry): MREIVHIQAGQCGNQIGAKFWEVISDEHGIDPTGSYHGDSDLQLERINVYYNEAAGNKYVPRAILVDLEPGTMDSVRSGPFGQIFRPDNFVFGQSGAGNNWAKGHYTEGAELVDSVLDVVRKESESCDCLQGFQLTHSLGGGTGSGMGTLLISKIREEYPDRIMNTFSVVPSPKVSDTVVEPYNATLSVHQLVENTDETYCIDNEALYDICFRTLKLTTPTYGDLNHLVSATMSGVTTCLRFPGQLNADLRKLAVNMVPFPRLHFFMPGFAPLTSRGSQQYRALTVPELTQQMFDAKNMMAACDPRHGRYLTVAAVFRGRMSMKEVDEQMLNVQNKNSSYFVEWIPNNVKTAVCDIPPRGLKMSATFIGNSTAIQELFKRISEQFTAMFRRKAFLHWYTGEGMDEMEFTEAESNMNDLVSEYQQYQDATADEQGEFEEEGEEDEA
Method: Tubulin is purified from pig brains according to published methods (Shelanski et al., 1973, Proc. Natl. Acad. Sci. USA, 70, 765-768, Weingarten et al., 1975, Proc. Natl. Acad. Sci. USA, 72, 1858-1862). Briefly, the brains are ground and centrifuged in an extraction buffer. The tubulin, present in the extract supernatant, is subjected to two successive cycles of polymerization at 37° C. and depolymerization at 4° C., before being separated from the MAPS (microtubule associated proteins) by chromatography on a phosphocellulose P11 column (Whatman). The tubulin thus isolated is more than 95% pure. It is stored in a buffer known as RB/2 30% glycerol, the composition of which is 50 mM MES-NaOH [2-(N-morpholino)ethanesulfonic acid], pH 6.8; 0.25 mM MgCl2; 0.5 mM EGTA; 30% (v/v) glycerol, 0.2 mM GTP (guanosine 5′-triphosphate).
The polymerization of the tubulin into microtubules is monitored by turbidimetry as follows: the tubulin is adjusted to a concentration of 10 μM (1 mg/ml) in the RB/2 30% glycerol buffer, to which are added 1 mM GTP and 6 mM MgCl2. The polymerization is initiated by increasing the temperature from 6° C. to 37° C. in a cuvette with 1 cm optical path length, placed in a Uvikon 931 spectrophotometer (Kontron) equipped with a thermostatically-regulated cuvette holder. The increase in turbidity of the solution is followed at 350 nm.
The products are dissolved at 10 mM in DMSO and added at variable concentrations (0.5 to 10 μM) to the tubulin solution before polymerization. The IC50 value is defined as the concentration of product which inhibits the rate of polymerization by 50%. A product with an IC50 value of less than or equal to […] is considered to be very active.

[2] = test system: HCT116 cells; experiment: Inhibition of proliferation of the human colon tumor line HCT116 ([14C]thymidine incorporation); assay type: cell-based; conditions: HCT-116, 48 hours at 37° C.
Method: Assay for Determining the Inhibition of Proliferation of the Human Colon Tumor Line HCT116
The proliferation of HCT116 cells is evaluated by measuring the incorporation of [^14C]thymidine in the following way. The HCT116 cells (from ATCC) are cultured in a DMEM medium (Gibco) which contains 10% foetal calf serum and antibiotics (1% penicillin, 1% streptomycin). To carry out the proliferation assay, the cells are seeded into 96-well Cytostar microplates (Amersham), at a rate of 5000 cells per well. The [^14C]thymidine (0.1 μCi/well) and the products to be evaluated are then added. Variable concentrations of products up to 10 μM are used; the DMSO (solvent used to dissolve the products) should not exceed 0.5% in the medium. 48 hours after incubation at 37° C., the radioactivity incorporated into the cells is measured by counting the plates in a Tri-Lux counter (Wallac). The IC50 value is defined as the concentration of product which reduces the radioactivity by 50% compared with an untreated control. A product with an IC50 value of less than 10 μM is considered to be cytotoxic.

Row | IC50 [1] [nM] | IC50 [2] [nM] | melting point [°C] | SMILES
1 | 800 | 76 |  | O=C(c1cc2ccccc2n1-c1ccccc1)N1CCN(c2cccc(Cl)c2)CC1 [Example 1, [4-(3-chlorophenyl)piperazin-1-yl](1-phenyl-1H-indol-2-yl)methanone]
2 | 800 | 6 |  | O=C(c1c2ccccc2nn1-c1ccccc1)N1CCN(c2cccc(Cl)c2)CC1 [Example 2]
3 | 500 | 9.8 |  | COc1cc(OC)cc(N2CCN(C(=O)c3c4ccccc4nn3-c3ccccc3)CC2)c1 [Example 3]
4 | 1100 | 990 |  | O=C(c1c(-c2ccccc2)sc2ccccc12)N1CCN(c2cccc(Cl)c2)CC1 [Example 4, [4-(3-chlorophenyl)piperazin-1-yl](2-phenylbenzo[b]thiophen-3-yl)methanone]
5 | 900 |  |  | NC(=O)c1cccc(N2CCN(C(=O)c3cc4ccccc4n3-c3ccccc3)CC2)c1 [Example 7, [4-(3-carboxamidophenyl)piperazin-1-yl](1-phenyl-1H-indol-2-yl)methanone]
6 | 1100 |  | 146 | COc1cc(OC)cc(N2CCN(C(=O)c3cc4ccccc4n3-c3ccccc3)CC2)c1 [Example 8, [4-(3,5-dimethoxyphenyl)piperazin-1-yl](1-phenyl-1H-indol-2-yl)methanone]
7 | 1200 |  | 165 | COc1cc(OC)cc(N2CCN(C(=O)c3cc4cc(OC)ccc4n3-c3ccccc3)CC2)c1 [Example 9, [4-(3,5-dimethoxyphenyl)piperazin-1-yl](5-methoxy-1-phenyl-1H-indol-2-yl)methanone]
8 | 2600 |  | 125 | COc1ccc2c(c1)cc(C(=O)N1CCN(c3cccc(Cl)c3)CC1)n2-c1ccccc1 [Example 10, [4-(3-chlorophenyl)piperazin-1-yl](5-methoxy-1-phenyl-1H-indol-2-yl)methanone]
9 | 800 |  | 188 | O=C(C1=Nc2ccc(Cl)cc2C1c1ccccc1)N1CCN(c2cccc(Cl)c2)CC1 (stereo not drawn) [Example 11, [4-(3-chlorophenyl)piperazin-1-yl](5-chloro-3-phenyl-1H-indol-2-yl)methanone]
10 |  |  | 98 | COc1cc(OC)cc(N2CCN(C(=O)c3cc4n(c3-c3ccccc3)CSC4)CC2)c1 [Example 14, [4-(3,5-dimethoxyphenyl)piperazin-1-yl](5-phenyl-1H-pyrrolo-[1,2-c]thiazol-6-yl)methanone]
